Laboratory results from patent publication US20210261561A1, “BICYCLIC HETEROCYCLE DERIVATIVES HAVING SELECTIVE BACE1 INHIBITORY ACTIVITY” (SHIONOGI & CO., LTD., priority 2018, published 2021).

Legend:
BACE1 [1] = biological target: T1, BACE1 (Homo sapiens, UniProt P56817); assay: BACE1 biochemical FRET based assay (Test Example 2-1); conditions: for selectivity: BACE2 IC50 over BACE1 IC50 (FRET); for IC50: FRET, 0.04 μg/mL BACE1, 450 minutes, Citrate buffer pH 5.0
Outline: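 FRET cleavage of 13-mer APP Swedish-mutant peptide (Mca donor/Dnp quencher, […]) by recombinant BACE1 (0.04 μg/mL final), 450 min at room temperature in 33.3 mM citrate pH 5.0, 0.033% PEG, 3% DMSO. Fluorescence (ex 320/em 405 nm) read as T450 minus Tx (0–120 min); IC50 from curve fit of % control.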

CYP3A4 = biological target: T2, CYP3A4 (Homo sapiens, UniProt P08684); assay: CYP3A4(MDZ) MBI test (Test Example 4-2); format: in vitro ADME; conditions: pooled human liver microsomes, 10 μmol/L MDZ, pre-reaction 0 or 30 minutes; shifted IC value
T2 construct: from tissue; host or cells: pooled human liver microsomes
Experimental: CYP3A4(MDZ) MBI test is a test of investigating mechanism based inhibition (MBI) potential on CYP3A4 inhibition of a compound. CYP3A4 inhibition is evaluated using 1-hydroxylation reaction of midazolam (MDZ) by pooled human liver microsomes as a marker reaction.
The reaction conditions were as follows: substrate, 10 μmol/L MDZ; pre-reaction time, 0 or 30 minutes; substrate reaction time, 2 minutes; reaction temperature, 37° C.; protein content of pooled human liver microsomes, 0.5 mg/mL at pre-reaction time, […] (at 10-fold dilution) at reaction time; concentrations of the compound of the present invention, 1, 5, 10, 20 μmol/L (4 points).
Pooled human liver microsomes in a K-Pi buffer (pH 7.4) and a compound of the present invention solution as a pre-reaction solution were added to a 96-well plate at the composition of the pre-reaction. A part of pre-reaction solution was transferred to another 96-well plate, and diluted 10-fold by a substrate in a K-Pi buffer. NADPH as a co-factor was added to initiate the marker reaction (without preincubation). After a predetermined time of the marker reaction, methanol/acetonitrile=1/1 (v/v) solution was added in order to terminate the marker reaction. On the other hand, NADPH was also added to a remaining pre-reaction solution in order to initiate a pre-reaction (with preincubation). After a predetermined time of a pre-reaction, a part was transferred to another 96-well plate, and diluted 10-fold by a substrate in a K-Pi buffer in order to initiate the marker reaction. After a predetermined time of the marker reaction, methanol/acetonitrile=1/1 (v/v) solution is added in order to terminate the marker reaction. After centrifuged at 3000 rpm for 15 minutes, 1-hydroxymidazolam in the supernatant is quantified by LC/MS/MS.
The sample adding DMSO to a reaction system instead of compound of the present invention solution was adopted as a control (100%) because DMSO is used as a solvent to dissolve a compound of the present invention. Remaining activity (%) was calculated at each concentration of the compound of the present invention added as the solution, and IC50 value was calculated by reverse-presumption using a logistic model with a concentration and an inhibition rate. Shifted IC value was calculated as “IC value without preincubation (0 minutes)/IC value with preincubation (30 minutes)”. When a shifted IC value was 1.5 or more, this was defined as positive. When a shifted IC value was less than 1.1, this was defined as negative.

BACE2 [2] = biological target: T3, BACE2 (Homo sapiens, UniProt Q9Y5Z0); assay: BACE2 biochemical FRET based assay (Test Example 2-1 (2)); conditions: 0.4 μg/mL BACE2, 450 minutes, Citrate buffer pH 5.0
T3 sequence (Q9Y5Z0 63-518): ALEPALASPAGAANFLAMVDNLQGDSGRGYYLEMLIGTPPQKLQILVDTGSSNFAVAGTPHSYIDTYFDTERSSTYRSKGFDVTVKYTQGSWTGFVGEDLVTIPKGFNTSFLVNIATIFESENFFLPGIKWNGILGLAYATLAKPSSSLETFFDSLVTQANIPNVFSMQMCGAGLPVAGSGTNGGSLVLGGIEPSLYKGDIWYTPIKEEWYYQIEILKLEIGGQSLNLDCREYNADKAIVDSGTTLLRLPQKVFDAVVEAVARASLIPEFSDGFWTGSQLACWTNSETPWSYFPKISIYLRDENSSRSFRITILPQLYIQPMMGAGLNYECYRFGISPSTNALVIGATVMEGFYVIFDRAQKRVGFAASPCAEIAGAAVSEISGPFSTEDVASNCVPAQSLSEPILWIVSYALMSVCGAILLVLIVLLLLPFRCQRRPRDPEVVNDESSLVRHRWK
Outline: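 Recombinant human BACE2 (0.4 μg/mL final) was incubated 450 min at room temperature with 10 μM Mca/Dnp-quenched Swedish-APP FRET substrate in 33.3 mM citrate pH 5.0, 0.033% PEG, 2% DMSO. Fluorescence (ex 320/em 405 nm) was taken as the T450 minus T0 difference. IC50 came from least-squares fit of % control.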

[3] = system: Abeta 1-37, Abeta 1-38, Abeta 1-40 and Abeta 1-42 in cerebrospinal fluid (CSF); assay: Pharmacology in the beagle dog, beta-amyloid profile in CSF (Test Example 18-1); format: in vivo
Experimental: (§1) Test compounds were tested to evaluate the effect on the beta-amyloid profile in cerebrospinal fluid (CSF) of dogs after a single dose, in combination with pharmacokinetic (PK) follow up and limited safety evaluation.
In the case of compounds shown below, two beagle dogs (1 male, 1 female) were dosed with vehicle (1 mL/kg of an aqueous solution of 20% cyclodextrin) and 4 beagle dogs (2 males and 2 females) were dosed with test compound at the doses indicated in the following Table in an aqueous 20% cyclodextrin solution with a concentration in mg/mL identical to the dose given in mg/kg) on an empty stomach.
(§2) CSF was taken in conscious animals directly from the lateral ventricle via a cannula which was screwed in the skull and covered with subcutaneous tissue and skin, before and at 4, 8, 25 and 49 hours after dosing. Eight hours after dosing the animals got access to their regular meal for 30 minutes. Blood was taken for PK follow up (0.5, 1, 2, 4, 8, 25 and 49 hours) and serum samples for biochemistry were taken before and at 8 and 25 h after dosing. The CSF samples were used for measurement of Abeta 1-37, Abeta 1-38, Abeta 1-40 and Abeta 1-42.

[4] = system: Abeta 1-37, Abeta 1-38, Abeta 1-40 and Abeta 1-42 in cerebrospinal fluid (CSF); assay: Pharmacology in the beagle dog, beta-amyloid profile in CSF (Test Example 18-2); format: in vivo; conditions: single dose 0.63 mg/kg
Experimental: as §1
For each of compound II-6 or II-10, four beagle dogs (2 males, 2 females) were dosed with vehicle (1 mL/kg of an aqueous solution of 20% cyclodextrin) and 12 beagle dogs (2 males and 2 females per dosage group) were dosed with test compounds as follows:
In the case of compounds II-2, II-3 and II-18, two beagle dogs (1 male, 1 female) were dosed with vehicle (1 mL/kg of an aqueous solution of 20% cyclodextrin) and 4 beagle dogs (2 males and 2 females) were dosed with test compound (II-2, II-3, or II-18) at the doses indicated in the following Table in an aqueous 20% cyclodextrin solution with a concentration in mg/mL identical to the dose given in mg/kg) on an empty stomach.
as §2

BACE2 [5] = biological target: T3, BACE2; assay: BACE2 biochemical FRET based assay (Test Example 2-4); conditions: recombinant BACE2 0.4 μg/mL, 10 μM substrate, 450 minutes, pH 5.0; read-out: BACE2 Biochemical FRET based assay pIC50 (converted)
Outline: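 Recombinant BACE2 (0.4 μg/mL final) incubated 450 min at room temperature with 10 μM Swedish-mutant APP Mca/Dnp FRET substrate in 33.3 mM citrate pH 5.0, 0.033% PEG, 2% DMSO. Fluorescence (ex 320/em 405 nm) difference between T0 and T450; % inhibition versus no-enzyme and full-enzyme controls, IC50 by non-linear regression.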

BACE1 [6] = biological target: T1, BACE1; assay: BACE1 biochemical FRET based assay - Method 1 (Test Example 2-2); conditions: 0.04 μg/mL BACE1, 450 minutes, Citrate buffer pH 5.0, read-out: BACE1 Biochemical FRET based assay - Method 1 PIC50 (converted)
Outline: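 FRET cleavage of a 13-mer APP Swedish-mutant peptide (Mca/Dnp, 20 μm) by BACE1 at 0.04 μg/mL final, 450 min at room temperature in 33.3 mM citrate pH 5.0, 0.033% PEG, 3% DMSO. Fluorescence (ex 320/em 405 nm) taken as T450 minus Tx (0–120 min); % inhibition normalized to no-enzyme and enzyme controls, IC50 by non-linear regression.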

BACE1 [7] = biological target: T1, BACE1; assay: BACE1 cellular αLisa assay in SKNBE2 cells, Abeta 1-42 (Test Example 2-3); format: cell-based; parameters: endogenous in cells; host or cells: SKNBE2 human neuroblastoma cells expressing hAPP695; conditions: SKNBE2 cells expressing hAPP695, 18 hours incubation, read-out: Cellular αLisa assay in SKNBE2 cells Abeta 42 pIC50 (converted)
Outline: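 SKNBE2 neuroblastoma cells expressing wild-type hAPP695 incubated with compound for 18 h. Secreted Abeta 1-42 quantified by sandwich αLisa (AbN/25 donor, cAb42/26 acceptor beads), read after 1 h (ex 650, em 615 nm). IC50 from non-linear regression of % inhibition normalised to low and high controls.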

[8] = single dose 5 mg/kg, relevant decrease = >20% decrease
[9] = single dose 10 mg/kg, relevant decrease = >20% decrease

T1 sequence (P56817 46-501): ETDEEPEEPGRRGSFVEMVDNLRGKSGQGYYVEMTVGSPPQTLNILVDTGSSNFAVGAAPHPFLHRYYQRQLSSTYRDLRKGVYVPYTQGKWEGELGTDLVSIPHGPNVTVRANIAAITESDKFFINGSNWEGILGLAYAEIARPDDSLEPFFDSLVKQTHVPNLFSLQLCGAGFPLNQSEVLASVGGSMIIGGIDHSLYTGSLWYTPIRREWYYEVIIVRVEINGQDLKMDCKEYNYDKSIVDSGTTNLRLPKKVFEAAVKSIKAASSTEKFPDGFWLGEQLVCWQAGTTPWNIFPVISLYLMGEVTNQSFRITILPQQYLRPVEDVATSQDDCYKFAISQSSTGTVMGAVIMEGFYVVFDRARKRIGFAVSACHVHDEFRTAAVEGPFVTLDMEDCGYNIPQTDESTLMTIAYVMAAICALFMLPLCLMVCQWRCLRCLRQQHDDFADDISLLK
T2 sequence (P08684 whole entry): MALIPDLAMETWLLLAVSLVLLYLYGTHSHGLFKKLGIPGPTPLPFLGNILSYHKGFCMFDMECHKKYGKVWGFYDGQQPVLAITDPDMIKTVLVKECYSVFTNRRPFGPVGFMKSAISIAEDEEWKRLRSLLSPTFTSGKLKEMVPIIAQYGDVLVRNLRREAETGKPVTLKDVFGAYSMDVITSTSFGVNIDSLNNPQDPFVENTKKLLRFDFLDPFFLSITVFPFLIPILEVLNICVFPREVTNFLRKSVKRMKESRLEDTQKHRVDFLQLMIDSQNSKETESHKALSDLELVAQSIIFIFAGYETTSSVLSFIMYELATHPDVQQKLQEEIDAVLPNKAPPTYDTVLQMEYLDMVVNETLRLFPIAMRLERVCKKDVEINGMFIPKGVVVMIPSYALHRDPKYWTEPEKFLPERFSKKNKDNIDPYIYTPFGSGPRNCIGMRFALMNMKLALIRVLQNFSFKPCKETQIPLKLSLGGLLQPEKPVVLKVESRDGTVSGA

CN1C(N)=N[C@](C)(c2cc(NC(=O)c3cc4c(cn3)OC(F)(F)O4)ccc2F)CS1(=O)=O [Compound I-012]
selectivity (BACE1 [1]): 18.7 | IC50 (BACE1 [1]): 2.9 nM | MBI MDZ (CYP3A4): Negative | IC50 (BACE2 [2]): 53.7 nM

CC1(C)C(N)=N[C@](C)(c2cc(NC(=O)c3cc4c(cn3)OC(F)(F)CO4)ccc2F)CS1(=O)=O [Compound I-024]
% Decrease in Abeta 1-42 at 8 h post dosing compared to own baseline ([3]; single dose 0.63 mg/kg): −40% | % Decrease in Abeta 1-42 at 8 h post dosing compared to own baseline ([3]; single dose 2.5 mg/kg): −66% | MBI MDZ (CYP3A4): Negative

NC1=N[C@](CF)(c2cc(NC(=O)c3cc4c(cn3)OC(F)(F)CO4)ccc2F)[C@H]2COCC[C@H]2O1 [Compound I-035]
% Decrease in Abeta 1-42 at 8 h post dosing compared to own baseline ([3]; single dose 2.5 mg/kg): −52% | % Decrease in Abeta 1-42 at 8 h post dosing compared to own baseline ([3]; single dose 5 mg/kg): −63% | % Decrease in Abeta 1-42 at 25 h post dosing compared to own baseline [3, 8]: −27% | % Decrease in Abeta 1-42 at 8 h post dosing compared to own baseline ([3]; single dose 10 mg/kg): −82% | % Decrease in Abeta 1-42 at 25 h post dosing compared to own baseline [3, 9]: −28% | selectivity (BACE1 [1]): 301 | IC50 (BACE1 [1]): 2.2 nM | MBI MDZ (CYP3A4): Negative | IC50 (BACE2 [2]): 661 nM

CC1(S(C)(=O)=O)CCC(CF)(c2cc(NC(=O)c3cc4c(cn3)OC(F)(F)O4)cc(F)c2F)N=C1N (stereo not drawn) [II-18]
% Decrease in Abeta 1-42 at 8 h post dosing compared to own baseline ([4]; 8 h): 53% | % Decrease in Abeta 1-42 at 24 h^(a) or 25 h^(b) post dosing compared to own baseline ([4]; 24 h or 25 h): 27% | IC50 (BACE2 [5]): 240 nM | melting point: 195 °C | IC50 (BACE1 [6]): 3.24 nM | IC50 (BACE1 [7]): 4.47 nM

NC1=N[C@](CF)(c2cc(NC(=O)c3cc4c(cn3)OC(F)(F)O4)ccc2F)[C@H]2COCC[C@H]2O1 [Compound I-036]
selectivity (BACE1 [1]): 166 | IC50 (BACE1 [1]): 13.2 nM | MBI MDZ (CYP3A4): Negative | IC50 (BACE2 [2]): 2190 nM

C[C@H]1OC[C@H]2[C@@H]1OC(N)=N[C@]2(CF)c1cc(NC(=O)c2cc3c(cn2)OC(F)(F)CO3)ccc1F [Compound I-049]
selectivity (BACE1 [1]): 136 | IC50 (BACE1 [1]): 3.6 nM | MBI MDZ (CYP3A4): Negative | IC50 (BACE2 [2]): 490 nM

[2H]C1([2H])Oc2cnc(C(=O)Nc3ccc(F)c([C@]4(C)CS(=O)(=O)C(C)(C)C(N)=N4)c3)cc2OC1([2H])[2H] [Compound I-026]
MBI MDZ (CYP3A4): Negative

NC1=N[C@](CF)(c2cc(NC(=O)c3cc4c(cn3)OC(F)(F)CO4)ccc2F)[C@H]2CCOC[C@H]2O1 [Compound I-046]
selectivity (BACE1 [1]): 263 | IC50 (BACE1 [1]): 8.32 nM | MBI MDZ (CYP3A4): Negative | IC50 (BACE2 [2]): 2190 nM

CN1C(N)=N[C@](C)(c2cc(NC(=O)c3cc4c(cn3)OC(F)(F)CO4)ccc2F)CS1(=O)=O [Compound I-011]
% Decrease in Abeta 1-42 at 8 h post dosing compared to own baseline ([3]; single dose 5 mg/kg): −54% | % Decrease in Abeta 1-42 at 25 h post dosing compared to own baseline [3, 8]: −37% | % Decrease in Abeta 1-42 at 8 h post dosing compared to own baseline ([3]; single dose 10 mg/kg): −74% | % Decrease in Abeta 1-42 at 25 h post dosing compared to own baseline [3, 9]: −77% | % Decrease in Abeta 1-42 at 49 h post dosing compared to own baseline ([3]; single dose 10 mg/kg, 49 h, relevant decrease = >20% decrease): −30% | selectivity (BACE1 [1]): 15.9 | IC50 (BACE1 [1]): 1.2 nM | MBI MDZ (CYP3A4): Negative | IC50 (BACE2 [2]): 18.6 nM

CC1(C)C(N)=N[C@](C)(c2cc(NC(=O)c3cc4c(cn3)OC(F)(F)O4)ccc2F)CS1(=O)=O [Compound I-027]
MBI MDZ (CYP3A4): Negative
